Consider ten compounds from publication PMC8659164, “Effect of S–Se Bioisosteric Exchange on Affinity and Intrinsic Efficacy of Novel N-acylhydrazone Derivatives at the Adenosine A2A Receptor” (Molecules, 2021).

For this assay, the target named is T1, adenosine A2A receptor (A2AR) (Rattus norvegicus, UniProt P30543).
T1 construct: gene Adora2a; native full-length receptor in striatum membrane preparation of adult male Wistar rats
The experiment in a line: [3H]-ZM241385 competition, rat striatum membranes. It is filed as binding. Conditions: 50 mM MgCl2 (medium I), 0.5 nM [3H]-ZM241385, pH 7.4, 25 °C, 60 min; parentheses = 95% CI. The source says: [3H]-ZM241385 competition, rat striatum membranes on adenosine A2A receptor (A2AR)

As a reminder, the IC50 is the concentration that gives 50% inhibition.

T1 sequence (P30543 whole entry): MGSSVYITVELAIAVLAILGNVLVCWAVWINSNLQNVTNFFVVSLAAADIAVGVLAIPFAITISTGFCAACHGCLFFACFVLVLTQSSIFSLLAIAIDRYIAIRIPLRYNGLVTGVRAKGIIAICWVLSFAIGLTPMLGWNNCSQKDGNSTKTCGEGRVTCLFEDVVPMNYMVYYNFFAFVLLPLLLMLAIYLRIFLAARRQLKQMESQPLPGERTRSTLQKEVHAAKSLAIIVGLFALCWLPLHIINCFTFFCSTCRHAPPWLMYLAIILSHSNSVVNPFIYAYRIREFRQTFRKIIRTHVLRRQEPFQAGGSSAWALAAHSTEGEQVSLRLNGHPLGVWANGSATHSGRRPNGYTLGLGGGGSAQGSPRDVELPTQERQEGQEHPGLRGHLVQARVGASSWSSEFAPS

Take `O=C(N/N=C/c1cccs1)c1ccc2c(c1)OCO2` [compound 1, LASSBio-294]: the IC50 is 38.9 µM.
The result for `CN(/N=C/c1cccs1)C(=O)c1ccc2c(c1)OCO2` [compound 2, LASSBio-785] reads 47.9 µM; that for `O=C(N/N=C/c1ccc[se]1)c1ccc2c(c1)OCO2` [compound 3, N’-(Selenophen-2-yl-methylene)benzo[d][1,3] dioxole-5-carbohydrazide], 20.9 µM.
For `COc1cccc(C(=O)N/N=C/c2cccs2)c1` [compound 4, 3-Methoxy-N’-(thiophen-2-yl-methylene)benzohydrazide], the IC50 is 10.8 µM.
The result for `COc1cccc(C(=O)N/N=C/c2ccc[se]2)c1` [compound 5, 3-Methoxy-N’-(selenophen-2-yl-methylene)benzohydrazide] reads 10.4 µM; that for `CN(/N=C/c1ccc[se]1)C(=O)c1ccc2c(c1)OCO2` [compound 6, N-Methyl-N’-(selenophen-2-yl-methylene) benzo[d][1,3]dioxole-5-carbohydrazide], 52.9 µM.
The result for `COc1cccc(C(=O)N(C)/N=C/c2cccs2)c1` [compound 7, 3-Methoxy-N-methyl-N’-(thiophen-2-yl-methylene)benzohydrazide] reads 22.3 µM.
The result for `COc1cccc(C(=O)N(C)/N=C/c2ccc[se]2)c1` [compound 8, LASSBio-2199] reads 15.4 µM; that for `COc1cccc(C=NNC(=O)c2cccs2)c1` [compound 13, N’-(3-Methoxybenzylidene)thiophene-2-carbo-hydrazide], 27.1 µM; that for `COc1cccc(C=NNC(=O)c2ccc[se]2)c1` [compound 14, N’-(3-Methoxybenzylidene)selenophene-2-ca-rbohydrazide], 16.6 µM.
